Measured values as given in patent US11179379B2, “Compositions and methods for hemoglobin production” (THE CHILDREN'S HOSPITAL OF PHILADELPHIA, priority 2017, dated 2021).

system: HUDEP-2 expressing Cas9 cells; experiment: Combination of eIF2αK1 gRNA and pomalidomide, HbF positive cells; format: cell-based, human; conditions: pomalidomide in combination with eIF2αK1 inhibition (eIF2αK1 gRNA #3 or #5); three independent experiments
Description: FIG. 3 is a graph of the percentage of cells positive for HbF expression. HUDEP-2 expressing Cas9 cells were transduced with eIF2αK1 sgRNA #3, eIF2αK1 sgRNA #5, a gRNA targeting BCL11A exon 2, or a negative control gRNA. Cells were then incubated with or without pomalidomide. n=3.
Combination experiments with the immunomodulatory pomalidomide, which is an HbF inducer, were also performed. If eIF2αK1 inhibition works at least in part by altering protein translation, additive effects may be observed when using compounds that predominantly affect transcription of fetal globin genes. Briefly, HUDEP-2 expressing Cas9 cells were transduced with eIF2αK1 gRNA #3, eIF2αK1 gRNA #5, a gRNA targeting BCL11A exon 2, or a negative control gRNA. The cells were then incubated with or without pomalidomide. […] Indeed, the results with pomalidomide in combination with eIF2αK1 inhibition were very strong in three independent experiments, even stronger than those observed with Bcl11A inhibition and pomalidomide.

Row | Compound | number of HbF positive cells
1 | Nc1cccc2c1C(=O)N(C1CCC(=O)NC1=O)C2=O (stereo not drawn) [pomalidomide] | greatly increased

system: eIF2αK1; experiment: not given; conditions: literature reports; cited from earlier work

Row | Compound | inhibition of eIF2αK1 activity
2 | C=CC1=C(C)c2cc3[n-]c(cc4[n-]c(cc5nc(cc1n2)C(C)=C5C=C)c(C)c4CCC(=O)O)c(CCC(=O)O)c3C.[Fe+2] [Fe(II)-heme] | inhibit eIF2αK1 activity
3 | C=CC1=C(C)c2cc3[n-]c(cc4[n-]c(cc5nc(cc1n2)C(C)=C5C=C)c(C)c4CCC(=O)O)c(CCC(=O)O)c3C.[Cl-].[Fe+3] [Fe(III)-hemin] | inhibit eIF2αK1 activity
4 | O=c1c(O)c(-c2ccc(O)c(O)c2)oc2cc(O)cc(O)c12 [Quercetin] | ATP-competitive kinase inhibitor of eIF2αK1
5 | C=CC1=C(C)/C(=C/C2=NC(=C\c3[nH]c(/C=C4\NC(=O)C(C)=C4C=C)c(C)c3CCC(=O)O)/C(CCC(=O)O)=C2C)NC1=O [biliverdin] | inhibit eIF2αK1 activity
6 | uroporphyrin | inhibit eIF2αK1 activity
